Measurements as given in ChEMBL document CHEMBL1201862, “PubChem BioAssay data set” (2004).
Active and inactive are the calls of the source.

Experiments:
[1] = A cytotoxicity screen of small molecule inhibitors of the PhoP region in Salmonella typhi identified in the primary screen. [Related pubchem assays: 1850, 1864, 1985 ]; type: functional
[2] = target: T1, Estrogen receptor (Homo sapiens, UniProt P03372);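 further: potency for inhibiting coactivator peptide recruitment to the receptor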
T1 sequence (P03372 whole entry): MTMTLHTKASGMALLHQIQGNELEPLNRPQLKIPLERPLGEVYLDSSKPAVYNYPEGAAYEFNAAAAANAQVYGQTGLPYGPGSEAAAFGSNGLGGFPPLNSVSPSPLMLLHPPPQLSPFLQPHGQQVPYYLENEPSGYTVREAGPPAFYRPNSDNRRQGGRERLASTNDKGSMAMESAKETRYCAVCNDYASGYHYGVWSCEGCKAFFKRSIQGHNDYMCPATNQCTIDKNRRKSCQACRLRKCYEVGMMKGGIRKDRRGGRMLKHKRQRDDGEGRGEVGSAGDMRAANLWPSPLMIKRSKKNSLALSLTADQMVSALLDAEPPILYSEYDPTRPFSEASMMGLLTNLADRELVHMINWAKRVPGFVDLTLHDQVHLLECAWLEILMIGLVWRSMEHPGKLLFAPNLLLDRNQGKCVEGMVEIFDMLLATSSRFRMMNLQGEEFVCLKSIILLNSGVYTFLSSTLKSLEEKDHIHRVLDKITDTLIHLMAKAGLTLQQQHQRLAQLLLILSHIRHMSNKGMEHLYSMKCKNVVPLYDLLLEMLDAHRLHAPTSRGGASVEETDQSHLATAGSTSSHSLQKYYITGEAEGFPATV

[3] = target: Peroxisome proliferator-activated receptor gamma/Nuclear receptor coactivator 2 (Homo sapiens, UniProt P37231); assay: (§1) TR-FRET dose response biochemical High Throughput Screening assay for agonists of the steroid receptor coactivator 2 (SRC-2) recruitment by the peroxisome proliferator-activated receptor gamma (PPAR gamma): non-selective agonists. [Related pubchem assays: 1297, 1032 ]; type: functional
[4] = target: Peroxisome proliferator-activated receptor gamma/Nuclear receptor coactivator 1 (Homo sapiens, UniProt P37231); assay: as §1, with “1 (SRC-1)” for “2 (SRC-2)”, “assays (depositor defined):AID1300, AID1808, AID504735, AID631]” for “assays: 1297, 1032 ]”; type: protein assay
[5] = target: Peroxisome proliferator-activated receptor gamma/Nuclear receptor coactivator 3 (Homo sapiens, UniProt P37231); assay: as §1, with “3 (SRC-3)” for “2 (SRC-2)”, “1301 (Confirmation screen.), 1048 (Primary screen.)]” for “1297, 1032 ]”; type: functional
[6] = cytotoxicity toward NIH3T3 fibroblasts, dose response, counter-screen, cell-based, ATP luminescence, mouse fibroblasts (AID 2010); type: functional;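 further: cells exposed to compound for about 90 hours before reading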
[7] = inhibitors of intracellular T. cruzi replication, confirmation, NIH3T3 host cells, beta-gal luminescence (AID 2044); type: functional, cell-based;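 further: intracellular parasites grown in NIH/3T3 mouse fibroblasts as host cells; luminescent beta-galactosidase reporter signal from transgenic T. cruzi replicating inside host cells; inhibitors lower the luminescence signal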
[8] = target: SUMO-activating enzyme (Homo sapiens, UniProt Q9UBT2); assay: SUMOylation inhibitor hit validation, confirmation, SUMOylation inhibitor project, biochemical, AlphaScreen (AID 2018); type: functional
[9] = HepG2 cell cytotoxicity, dose response, cytotoxicity control for non-replicating M. tuberculosis project (AID 489018); type: functional; details: Mycobacterium tuberculosis
[10] = cells; type: functional
[11] = THP-1 cell cytotoxicity, dose response, cytotoxicity control for non-replicating M. tuberculosis project (AID 489025); type: functional
[12] = target: Cytochrome P450 2D6 (Homo sapiens, UniProt P10635);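 further: CYP2D6 member of a cytochrome P450 panel assay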
[13] = target: Voltage-dependent T-type calcium channel subunit alpha-1H (Homo sapiens, UniProt O95180); type: functional;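 further: channel activity triggered by adding a high calcium stimulation buffer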
[14] = cytotoxicity in HPDE-C7 cells, cell-based, fluorescence, HTS (AID 430); type: functional; details: Homo sapiens
[15] = cytotoxicity in KRAS-transformed pancreatic duct cells, primary screen, cell-based, fluorescence, HTS (AID 431); type: functional; details: Homo sapiens;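 further: cell line used: HPDE-C7K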
[16] = target: T2, Aminopeptidase N (Plasmodium falciparum FcB1/Columbia, UniProt O96935); assay: P. falciparum M1AAP inhibitors, biochemical, fluorogenic H-Leu-NHMec substrate, 1536-well (AID 1445); set-up: species or system Plasmodium falciparum 3D7, 3D7
T2 sequence (O96935 whole entry): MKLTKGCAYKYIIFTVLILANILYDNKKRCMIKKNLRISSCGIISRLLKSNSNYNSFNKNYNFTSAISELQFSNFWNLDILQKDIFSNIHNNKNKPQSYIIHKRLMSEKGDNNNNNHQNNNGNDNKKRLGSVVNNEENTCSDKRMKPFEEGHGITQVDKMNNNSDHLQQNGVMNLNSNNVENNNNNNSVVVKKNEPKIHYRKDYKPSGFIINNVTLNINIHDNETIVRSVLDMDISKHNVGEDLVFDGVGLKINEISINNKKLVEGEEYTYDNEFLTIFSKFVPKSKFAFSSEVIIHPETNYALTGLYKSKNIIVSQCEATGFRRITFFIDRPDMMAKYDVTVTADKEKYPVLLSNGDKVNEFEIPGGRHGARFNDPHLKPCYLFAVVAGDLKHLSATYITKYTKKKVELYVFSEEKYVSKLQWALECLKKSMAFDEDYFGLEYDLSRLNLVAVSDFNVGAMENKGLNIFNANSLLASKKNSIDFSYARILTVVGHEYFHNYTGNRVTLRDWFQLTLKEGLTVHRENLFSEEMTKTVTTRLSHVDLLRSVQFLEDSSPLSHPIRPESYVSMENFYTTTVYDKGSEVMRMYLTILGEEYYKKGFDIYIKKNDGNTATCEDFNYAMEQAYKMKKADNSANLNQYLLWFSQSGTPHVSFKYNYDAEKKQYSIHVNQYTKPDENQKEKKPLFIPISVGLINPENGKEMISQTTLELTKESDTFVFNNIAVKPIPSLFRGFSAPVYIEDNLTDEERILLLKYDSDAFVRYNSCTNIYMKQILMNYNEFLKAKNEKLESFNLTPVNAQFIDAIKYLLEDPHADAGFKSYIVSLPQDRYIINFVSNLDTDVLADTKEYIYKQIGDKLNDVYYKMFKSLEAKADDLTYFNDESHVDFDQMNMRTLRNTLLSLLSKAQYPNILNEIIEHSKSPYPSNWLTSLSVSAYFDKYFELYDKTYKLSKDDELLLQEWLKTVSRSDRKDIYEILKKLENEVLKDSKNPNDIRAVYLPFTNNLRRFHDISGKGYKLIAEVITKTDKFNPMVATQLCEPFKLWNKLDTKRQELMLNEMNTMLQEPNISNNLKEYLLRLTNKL

[17] = target: T3, Protein Tat (Human immunodeficiency virus type 1 group M subtype B (isolate HXB2)(HIV-1), UniProt P04608); type: functional;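 further: tat binding to TAR RNA read out by fluorescence polarization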
T3 sequence (P04608 whole entry): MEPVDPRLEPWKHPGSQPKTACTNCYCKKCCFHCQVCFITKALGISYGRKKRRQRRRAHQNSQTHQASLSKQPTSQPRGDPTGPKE

[18] = inhibitors of Vif binding to APOBEC3G peptide, primary screen, biochemical, TR-FRET, GST-Vif 1-94, biotin-A3G peptide, dose response retest (AID 1117319); type: functional;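 further: TR-FRET signal of purified GST-Vif binding a biotinylated A3G peptide; inhibitors lower the FRET signal by blocking Vif and A3G binding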
[19] = target: T4, Coagulation factor XII (Homo sapiens, UniProt P00748); type: functional;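 further: activated factor XIIa alpha cleaving a fluorogenic AMC peptide substrate; inhibitor potency from loss of enzyme activity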
T4 sequence (P00748 whole entry): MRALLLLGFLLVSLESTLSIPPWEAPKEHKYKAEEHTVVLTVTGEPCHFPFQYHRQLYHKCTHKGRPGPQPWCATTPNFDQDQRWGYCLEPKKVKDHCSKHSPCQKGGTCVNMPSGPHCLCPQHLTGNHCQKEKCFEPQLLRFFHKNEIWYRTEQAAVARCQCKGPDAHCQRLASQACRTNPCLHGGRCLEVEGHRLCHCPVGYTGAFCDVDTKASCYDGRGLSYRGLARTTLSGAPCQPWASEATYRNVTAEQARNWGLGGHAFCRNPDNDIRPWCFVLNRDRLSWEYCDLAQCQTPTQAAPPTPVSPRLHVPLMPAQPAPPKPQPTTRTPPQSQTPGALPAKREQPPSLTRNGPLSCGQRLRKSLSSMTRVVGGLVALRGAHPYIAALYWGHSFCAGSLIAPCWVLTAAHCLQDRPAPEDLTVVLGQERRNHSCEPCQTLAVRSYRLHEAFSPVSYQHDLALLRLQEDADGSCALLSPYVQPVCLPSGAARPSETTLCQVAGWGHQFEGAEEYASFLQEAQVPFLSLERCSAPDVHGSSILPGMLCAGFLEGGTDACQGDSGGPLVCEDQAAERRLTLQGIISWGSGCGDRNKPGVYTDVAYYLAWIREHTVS

Peroxisome proliferator-activated receptor gamma/Nuclear receptor coactivator 3, sequence (P37231 whole entry): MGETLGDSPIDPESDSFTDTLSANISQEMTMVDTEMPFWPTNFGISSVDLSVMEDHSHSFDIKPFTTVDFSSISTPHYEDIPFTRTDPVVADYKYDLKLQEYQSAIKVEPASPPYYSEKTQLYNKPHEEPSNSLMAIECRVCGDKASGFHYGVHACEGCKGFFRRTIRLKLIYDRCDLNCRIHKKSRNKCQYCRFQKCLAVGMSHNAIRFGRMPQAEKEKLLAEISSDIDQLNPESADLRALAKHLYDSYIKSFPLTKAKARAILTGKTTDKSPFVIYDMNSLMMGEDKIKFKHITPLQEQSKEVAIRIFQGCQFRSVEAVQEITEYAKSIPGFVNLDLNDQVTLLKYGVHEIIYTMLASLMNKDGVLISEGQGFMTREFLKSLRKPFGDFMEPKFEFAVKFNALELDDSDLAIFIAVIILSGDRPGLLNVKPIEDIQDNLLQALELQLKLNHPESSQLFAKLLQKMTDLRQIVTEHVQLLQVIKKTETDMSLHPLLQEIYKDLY
Peroxisome proliferator-activated receptor gamma/Nuclear receptor coactivator 3, sequence (Q9Y6Q9 whole entry, further chain): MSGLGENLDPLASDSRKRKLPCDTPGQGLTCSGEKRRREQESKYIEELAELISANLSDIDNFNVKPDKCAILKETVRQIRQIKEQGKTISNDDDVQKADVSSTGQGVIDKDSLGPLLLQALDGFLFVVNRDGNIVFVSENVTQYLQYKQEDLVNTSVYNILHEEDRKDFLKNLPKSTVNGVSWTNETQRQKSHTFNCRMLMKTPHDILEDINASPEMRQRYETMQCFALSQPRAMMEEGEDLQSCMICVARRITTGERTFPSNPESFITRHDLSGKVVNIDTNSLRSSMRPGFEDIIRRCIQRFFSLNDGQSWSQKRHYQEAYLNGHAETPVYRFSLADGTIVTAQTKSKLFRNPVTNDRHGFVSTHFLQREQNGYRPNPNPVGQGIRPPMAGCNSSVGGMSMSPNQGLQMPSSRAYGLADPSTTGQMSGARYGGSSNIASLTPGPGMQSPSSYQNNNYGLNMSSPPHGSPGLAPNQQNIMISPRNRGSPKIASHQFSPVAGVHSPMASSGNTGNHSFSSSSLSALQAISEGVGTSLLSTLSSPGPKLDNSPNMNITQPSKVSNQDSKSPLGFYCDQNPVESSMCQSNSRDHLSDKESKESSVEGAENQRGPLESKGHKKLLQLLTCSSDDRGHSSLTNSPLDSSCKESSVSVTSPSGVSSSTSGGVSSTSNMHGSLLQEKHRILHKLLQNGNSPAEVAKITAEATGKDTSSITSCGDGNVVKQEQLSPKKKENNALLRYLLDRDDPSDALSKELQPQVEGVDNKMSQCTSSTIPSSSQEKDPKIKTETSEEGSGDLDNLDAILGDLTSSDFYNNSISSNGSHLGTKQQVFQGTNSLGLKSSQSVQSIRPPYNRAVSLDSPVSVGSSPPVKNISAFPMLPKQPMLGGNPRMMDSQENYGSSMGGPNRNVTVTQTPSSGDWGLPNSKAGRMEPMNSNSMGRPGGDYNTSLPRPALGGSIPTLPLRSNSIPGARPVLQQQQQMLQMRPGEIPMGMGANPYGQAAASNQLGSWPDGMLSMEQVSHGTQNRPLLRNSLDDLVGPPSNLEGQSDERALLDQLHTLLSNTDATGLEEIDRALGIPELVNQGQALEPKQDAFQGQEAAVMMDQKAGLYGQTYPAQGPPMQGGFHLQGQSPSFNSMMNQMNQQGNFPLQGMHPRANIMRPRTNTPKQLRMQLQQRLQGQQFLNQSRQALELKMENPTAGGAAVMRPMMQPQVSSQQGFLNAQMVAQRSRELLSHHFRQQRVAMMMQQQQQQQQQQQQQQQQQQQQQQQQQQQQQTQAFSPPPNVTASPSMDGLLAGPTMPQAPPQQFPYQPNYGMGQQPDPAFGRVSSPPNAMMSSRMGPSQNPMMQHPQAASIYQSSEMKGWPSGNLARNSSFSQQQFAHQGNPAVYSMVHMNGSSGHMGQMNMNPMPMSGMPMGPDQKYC
Peroxisome proliferator-activated receptor gamma/Nuclear receptor coactivator 2, sequence (P37231 whole entry): as the sequence (P37231 whole entry) above
Peroxisome proliferator-activated receptor gamma/Nuclear receptor coactivator 2, sequence (Q15596 whole entry, further chain): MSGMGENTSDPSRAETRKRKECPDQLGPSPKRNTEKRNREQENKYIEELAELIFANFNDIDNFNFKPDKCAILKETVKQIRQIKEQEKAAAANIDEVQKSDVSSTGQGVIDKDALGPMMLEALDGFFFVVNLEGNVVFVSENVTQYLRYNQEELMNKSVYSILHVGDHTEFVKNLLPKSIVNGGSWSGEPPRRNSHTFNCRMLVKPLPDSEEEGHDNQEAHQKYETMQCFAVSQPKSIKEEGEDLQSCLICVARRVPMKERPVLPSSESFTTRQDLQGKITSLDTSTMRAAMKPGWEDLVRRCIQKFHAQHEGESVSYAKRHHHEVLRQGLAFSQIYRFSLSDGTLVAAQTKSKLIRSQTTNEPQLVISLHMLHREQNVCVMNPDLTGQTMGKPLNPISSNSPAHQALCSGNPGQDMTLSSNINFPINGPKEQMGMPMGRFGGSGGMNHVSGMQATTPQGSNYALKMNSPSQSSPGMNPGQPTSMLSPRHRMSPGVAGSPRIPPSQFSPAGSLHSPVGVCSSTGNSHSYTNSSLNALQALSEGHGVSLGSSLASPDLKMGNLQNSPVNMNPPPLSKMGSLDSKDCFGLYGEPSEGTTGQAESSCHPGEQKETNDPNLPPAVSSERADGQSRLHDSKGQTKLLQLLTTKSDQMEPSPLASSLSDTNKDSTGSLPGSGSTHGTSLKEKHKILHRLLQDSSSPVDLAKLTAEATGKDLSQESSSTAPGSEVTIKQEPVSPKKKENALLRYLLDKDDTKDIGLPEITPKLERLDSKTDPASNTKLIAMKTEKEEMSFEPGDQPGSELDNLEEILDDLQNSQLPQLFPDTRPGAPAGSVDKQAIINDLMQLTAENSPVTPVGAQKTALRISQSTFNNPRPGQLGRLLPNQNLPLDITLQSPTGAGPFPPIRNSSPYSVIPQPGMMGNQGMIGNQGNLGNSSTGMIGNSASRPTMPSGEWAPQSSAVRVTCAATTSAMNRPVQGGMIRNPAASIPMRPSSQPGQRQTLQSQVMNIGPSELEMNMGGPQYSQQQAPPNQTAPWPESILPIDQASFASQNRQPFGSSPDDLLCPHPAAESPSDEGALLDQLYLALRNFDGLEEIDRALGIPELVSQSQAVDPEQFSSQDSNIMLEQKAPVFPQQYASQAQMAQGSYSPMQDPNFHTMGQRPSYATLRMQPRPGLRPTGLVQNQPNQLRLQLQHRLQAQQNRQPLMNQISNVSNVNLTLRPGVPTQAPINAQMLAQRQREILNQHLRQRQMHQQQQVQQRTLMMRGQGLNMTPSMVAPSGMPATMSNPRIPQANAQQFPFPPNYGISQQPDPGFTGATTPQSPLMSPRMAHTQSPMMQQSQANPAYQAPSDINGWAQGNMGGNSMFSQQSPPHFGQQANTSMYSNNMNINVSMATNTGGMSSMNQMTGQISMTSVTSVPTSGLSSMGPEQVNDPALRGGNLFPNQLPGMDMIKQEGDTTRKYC
Cytochrome P450 2D6, sequence (P10635 whole entry): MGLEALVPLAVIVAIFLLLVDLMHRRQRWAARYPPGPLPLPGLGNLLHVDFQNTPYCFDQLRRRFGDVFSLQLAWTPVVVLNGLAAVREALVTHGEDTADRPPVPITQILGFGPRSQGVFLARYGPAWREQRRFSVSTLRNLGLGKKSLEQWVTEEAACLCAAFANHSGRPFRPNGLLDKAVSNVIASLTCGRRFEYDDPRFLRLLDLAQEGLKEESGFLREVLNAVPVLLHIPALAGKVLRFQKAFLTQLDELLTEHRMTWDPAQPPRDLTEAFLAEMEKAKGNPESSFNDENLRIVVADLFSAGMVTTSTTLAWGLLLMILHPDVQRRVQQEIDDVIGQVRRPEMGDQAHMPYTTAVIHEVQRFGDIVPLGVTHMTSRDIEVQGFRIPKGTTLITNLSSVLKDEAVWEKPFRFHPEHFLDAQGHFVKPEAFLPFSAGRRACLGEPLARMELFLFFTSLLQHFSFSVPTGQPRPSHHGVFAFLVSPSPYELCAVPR

With `CS(=O)(=O)c1cnc2c(-c3ccsc3)cnn2c1N` the EC50 [1] was > 50 µM (active).
For `O=C(Cc1cn2ccsc2n1)OCc1nc2ccccc2s1`, the IC50 [2] was 6.98 µM (active).
For `CCn1c(=O)cc(SCC(=O)NCc2ccco2)c2ccccc21`, the EC50 [3] was > 79.4 µM (not active), the EC50 [4] was > 79.4 µM (inactive) and the EC50 [5] was > 79.4 µM (not active).
With `Cc1cccc(OCC(=O)Nc2nnc(-c3ccco3)s2)c1` the EC50 [3] was > 26.5 µM (not active), the EC50 [4] was > 26.5 µM (inactive) and the EC50 [5] was > 79.4 µM (not active).
For `NC(=O)C1(N2CCCCC2)CCN(c2nc(-c3ccc(Br)cc3)cs2)CC1`, the EC50 [6] was > 60 µM (inconclusive), the IC50 [2] was 37.8 µM (not active) and the EC50 [7] was 1.78 µM (active).
For `O=C(Nc1ccccc1O)c1cc(S(=O)(=O)N2CCOCC2)c(Cl)cc1Cl`, the IC50 [8] was > 100 µM (inactive).
For `O=C(CSc1ncnc2c1oc1ccccc12)Nc1cccc(Cl)c1`, the EC50 [3] was 23.7 µM (not active), the EC50 [4] was 37.1 µM (inactive) and the EC50 [5] was > 79.4 µM (not active).
In the case of `COC(=O)c1sc(NC(=O)c2ccc([N+](=O)[O-])o2)c(C#N)c1C`, the CC50 [9] is reported as > 20 µM (active), the EC50 [6] is reported as > 60 µM (not active) and the IC50 [10] is reported as 6.19 µM (active). For the same molecule, the CC50 [11] was 18.8 µM (active) and the EC50 [7] was 0.255 µM (active).
In the case of `Cc1nc2c(C(=O)NCc3ccc4c(c3)OCO4)cnn2c(O)c1Cc1ccccc1F`, the AC50 [12] is reported as 25.1 µM (inconclusive), the EC50 [13] is reported as 7.38 µM (active) and the EC50 [14] is reported as 9.68 µM (active). For the same molecule, the EC50 [15] was 11.6 µM (active).
In the case of `Cc1c(Br)cc(C(=O)NCc2ccco2)c(C)c1C`, the IC50 [2] is reported as > 50 µM (not active).
In the case of `NCCNC(=O)Cc1cccc(NC(=O)Cc2ccc(Nc3ncnc4c3ncn4[C@@H]3O[C@H](CO)[C@@H](O)[C@H]3O)cc2)c1`, the IC50 [16] is reported as 53.7 µM (active).
With `c1cncc(-c2csc(NCc3ccco3)n2)c1` the IC50 [17] was > 100 µM (active), the IC50 [18] was > 100 µM (active) and the IC50 [19] was > 50 µM (inactive).
